In article PMC12169680, “Design and Mechanistic Analysis of a Potent Bivalent Inhibitor of Transthyretin Amyloid Fibrillogenesis” (Journal of Medicinal Chemistry, 2025):

Assays:
V122I TTR [1] = biological target: T1, V122I TTR (Homo sapiens, UniProt P02766, V142I); assay: Electrophoretic analysis of V122I TTR proteolysis before and after mechano-enzymatic aggregation; type: biochemical; conditions: SDS-PAGE, trypsin, 96 h aggregation
T1 construct: 1-127; His6 (N); TEV cleavage site (N); made in house; host or cells: E. coli BL21 (DE3)
Procedure: Figure S2. Effect of B26 on proteolysis of V122I TTR. Homogenous SDS-12% PAGE under reducing conditions of 9 µM V122I TTR before (a) and after 96 h aggregation in the presence of 0 (b), 4.5 µM (c), 9 (d), 18 (e) and 36 µM (f) of B26 respectively in PBS pH 7.4 at 37°C. Aggregation was carried out under fluid agitation and addition of trypsin at an enzyme: substrate ratio of 1:200. LMW marker […]

[2] = biological target: T2, recombinant wild-type TTR (Homo sapiens, UniProt P02766); assay: Stopped flow kinetics of ligand binding by fluorescence emission; conditions: for rate constant k of TTR intrinsic fluorescence quenching / very early change in TTR fluorescence during dead time: 1 μM TTR; for rate constant k of TTR intrinsic fluorescence quenching: 1 μM ligand, 37 °C, PBS pH 7.4, first second; for very early change in TTR fluorescence during dead time: dead time <5 ms, equimolar ligand
T2 construct: Native TTR is a noncovalent homotetramer of β-sheet-rich 127-residue protomers; His6 (N); TEV cleavage site (N); made in house; host or cells: E. coli BL21 (DE3)
Procedure: Interaction of ligands in the TTR thyroxine binding pockets induces quenching of intrinsic fluorescence emission.
Kinetics of binding within the first second of reaction was evaluated with an SFM 3000 stopped flow device coupled to a MOS500 spectrometer with a fluorescence detection system (Bio Logic, Claix, France) and a cell path length of 1.5 mm (dead-time <5 ms). Total fluorescence emission over 325 nm, using a cut off filter, was monitored after excitation at 280 nm at 37 °C and 1 μM recombinant wild-type TTR in the presence of 1 μM of ligand in PBS pH 7.4 at a final concentration of 0.9% DMSO. Kinetic data were acquired as the average of at least 3 experimental mixings and fitted using the following equation y(t)=q+Aexp(−kt) where y(t) is the observed fluorescence q the offset of the baseline. A and k are, respectively, amplitude and rate constant of the observed fluorescence change.

[3] = biological target: T3, wild-type TTR in normal human plasma (Homo sapiens, UniProt P02766); assay: Displacement of 125I-T4 from TTR in normal human plasma; type: binding
T3 construct: TTR in whole plasma, from individuals homozygous for wild-type TTR; from tissue; host or cells: whole human plasma from individuals homozygous for wild-type TTR

V122I TTR [4] = biological target: T1, V122I TTR; assay: Inhibition of mechano-enzymatic fibrillogenesis (ThT); type: biochemical
Procedure: To test their potency as inhibitors of TTR fibril formation, the 15 ligands were evaluated for their ability to inhibit the mechano-enzymatic mechanism of fibrillogenesis of V122I TTR, which is one of the most common amyloidogenic variants, , causing a disease with severity intermediate between the wild-type and other rare, more aggressive types of amyloidosis. […] Biochemical activity of ligands together with their physicochemical properties (i.e., cLogD, TPSA) were taken into consideration and B26 was finally selected as the most promising lead for further studies (Figure A). […] Prototype mds84 was also included for comparison. […] Although higher molar ratios of the monovalent ligands did inhibit fibrillogenesis, this cannot be replicated in vivo because the negative cooperativity of TTR cannot be overcome at feasible drug dosage. ,
Recombinant V122I TTR at 0.5 mg/mL (9 μM) in PBS, pH 7.4 was preincubated (37 °C for 30 min) with an equimolar concentration of ligand (or DMSO alone) before adding trypsin (5 ng/μL). Protein fibrillogenesis was carried out in glass vials stirred at 1400 rpm (IKA magnetic stirrer), 37 °C and spectrophotometric turbidity at 400 nm was used to monitor fibril formation over time until it reached a plateau at 96 h.
Analysis of amyloid material harvested from each sample at the end of the fibrillogenesis was carried out using Thioflavin T (ThT) emission fluorescence and Congo red staining. For these analyses, samples were centrifuged 20 min at 11,600g and pellets were thoroughly rinsed with PBS to remove nonbound ligand, resuspended with 100 μL PBS, pH 7.4, containing 10 μM Thioflavin T (ThT) in Costar 96-well black-wall plates. Bottom fluorescence values (excitation 440 nm, emission 480 nm) were recorded using a BMG LABTECH FLUostar Omega plate reader. Each value was normalized to the ThT signal of the TTR sample without ligand.

TTR = biological target: T4, TTR (Homo sapiens, UniProt P02766); assay: NMR saturation transfer difference (STD) experiments to estimate k off; type: binding; conditions: no STD signal observed by increasing the saturation time
T4 construct: Native TTR is a noncovalent homotetramer of β-sheet-rich 127-residue protomers; His6 (N); TEV cleavage site (N); made in house; host or cells: E. coli BL21 (DE3)
Text: However, the prototype mds84 was unsuitable for drug development due to its large and highly hydrophobic structure. The bivalent compound B26 represents the evolution of such TTR ligands. Compared to the palindromic prototype, the molecule has reduced size and reduced lipophilicity as a consequence of the removal of one of the aryl rings from headgroup B; introduction of an oxygen in the six-atom linker; replacement of the benzoyl group in headgroup A with 4-carboxy pyridine. Despite these structural changes, the ligand retains the same pseudoirreversible binding of mds84. […] Therefore, the B26 ligand overcomes the pharmaceutical limitations of negative cooperativity and, at the same time, retains the biomolecular property of very strong inhibition of TTR fibrillogenesis by simultaneously occupying the two ligand binding sites. Each of them is able to accommodate two aryl rings, and the one that penetrates deeper into the cavity is anchored to the protein by two halogen substituents. We have designed a bivalent molecule in which one-half has the properties of a classical analogue of the thyroid hormone, and the second half, connected through a chemical linker, is represented by only one aryl ring with halogen substituents.

Rat pharmacokinetics = type: in vivo; conditions: data not shown
[5] = residual V122I TTR fibrillar aggregation with equimolar ligand, ThT emission normalized to protein without ligand, mean ± SD
[6] = supplementary CSV, residual V122I TTR aggregation, equimolar ligand

rat pharmacokinetics compared with mds84 (Rat pharmacokinetics) | IC50 ([3]; capacity to displace 125I-T4 from TTR in human plasma) [µM] | Structure (SMILES) | effect on proteolysis of V122I TTR (V122I TTR [1]) | rate constant k of TTR intrinsic fluorescence quenching [2] [s^–1] | very early change in TTR fluorescence during dead time [2] | quenching reaction / penetrance faster than mds84 ([2]; ratio of rate constants) [fold] | quenching reaction slower than tafamidis ([2]; ratio of rate constants) | reduction of TTR intrinsic fluorescence ([2]; within the first second, equimolar protein and ligand) [%] | binding to TTR in plasma, in words ([3]; normal human plasma) | antifibrillogenic activity, in words (V122I TTR [4]; V122I TTR, equimolar ligand) | Agg (%) (V122I TTR [4]; [5]) | Agg (%) (V122I TTR [4]; [6]) | k off (TTR) | IC50 ([3]; ligand concentration reducing binding of 125I-thyroxine by wild-type TTR by 50% in normal human plasma, mean ± SD) [µM]
– | – | O=C(O)CCc1cc(Cl)c(OCCCOCCOc2c(Cl)cc(Nc3cnccc3C(=O)O)cc2Cl)c(Cl)c1 [B26, 3-[4-[2-[3-[4-(2-Carboxyethyl)-2,6-dichloro-phenoxy]-propoxy]-ethoxy]-3,5-dichloro-anilino]-Pyridine-4-Carboxylic Acid] | inhibited proteolysis | 22 ± 0.55 | approximately 8% | 5 | at least 2 fold | ~30 | preservation of the properties | excellent antifibrillogenic activity | 4.2 ± 1.9 | 4.2±1.9 | very slow | –
much improved | 2 ± 0.2 | O=C(O)CCc1cc(Cl)c(OCCCCCCCOc2c(Cl)cc(Nc3ccccc3C(=O)O)cc2Cl)c(Cl)c1 [compound 1] | – | – | – | – | – | – | – | – | – | – | – | –
– | – | O=C(O)c1ccccc1Nc1cc(Cl)c(OCCCCCCCOc2c(Cl)cc(Nc3ccccc3C(=O)O)cc2Cl)c(Cl)c1 [mds84, reference compound] | – | 4.4 ± 0.44 | 3% | – | – | – | – | – | 2.4 ± 0.30 | 2.4±0.30 | – | 19 ± 5.8
